# Measured values taken from patent US8420776B2, “Ube2G2 binding domain in the ubiquitin ligase gp78 and methods of use thereof” (The United States of America, as Represented by the …, priority 2004, dated 2013).
# “Also recorded” adds a separate entry of the source. Ends that are not written are not given here. Peptide text beside a SMILES is read from it. * marks the point of attachment. Cbz = O=C(OCc1ccccc1)*
# Tests used:
# Ube2G2/MmUbc7 = molecular target: T1, Ube2G2/MmUbc7 (Mus musculus, UniProt P60605); test: GST pull-down binding of in vitro translated 35S-Met Ube2G2/MmUbc7; set-up: species or system human; conditions: GST fusion pull-down; 35S-Met labeled E2
# T1 construct: made in house; host or cells: coupled in vitro transcription/translation in rabbit reticulocyte lysate or wheat germ
# T1 sequence (P60605 1-165): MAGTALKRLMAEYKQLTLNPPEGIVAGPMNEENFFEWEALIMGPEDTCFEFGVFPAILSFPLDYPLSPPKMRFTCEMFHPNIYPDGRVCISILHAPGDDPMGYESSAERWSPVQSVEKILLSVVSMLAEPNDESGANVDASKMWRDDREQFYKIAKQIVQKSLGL
# Description: GST fusions were purified from E. Coli. Binding was carried out using equi-molar amount of fusion proteins measured by Commassie blue staining. Generally, 20 picomoles/sample were used. In vitro translated E2 was generated by coupled transcription and translation using 35S methionine in either wheat germ or rabbit reticulocyte lysate. […] Beads were washed with binding buffer and resolved by SDS-PAGE under reducing conditions. Analysis was by Storm PhosphoImager (Applied Biosystems, Foster City, Calif.). Direct binding assays used wild type His6-MmUbc7 (His6-Ube2G2) and Glutathione-sepharose bound GST fusions. Beadbound GST protein was incubated with 100 ng purified His6-MmUbc7 in binding buffer and washed and eluted as above. After transfer to Hybond-P (Amersham Biosciences) binding was assessed with anti-His6 followed by Enhanced Chemiluminescence ECL; Pierce).
# The E2 enzymes were in vitro translated using wheat germ.
# GST fusion proteins encoding the regions indicated in FIGS. 3A-3C were evaluated for the ability to bind to Ube2G2/MmUbc7 that had been in vitro transcribed and translated in rabbit reticulocyte lysate. gp78C represents the entire C-terminal cytoplasmic domain of gp78 (amino acid residues 309-643 of SEQ ID NO:2).
# Myc-Ube2G2 = molecular target: T2, Myc-Ube2G2 (Mus musculus, UniProt P60605); test: Co-immunoprecipitation with co-expressed Myc-Ube2G2 in cells; assay type: cell-based; conditions: anti-Myc IP, anti-GFP IB
# T2 construct: expressed in transfected cells; host or cells: HEK 293T
# T2 sequence (P60605 1-165): T1 sequence (P60605 1-165)
# Description: (§1) Transfections of HT1080, NIH 3T3 and HEK 293T cells were carried out ˜24 hr after plating using Polyfect (Qiagen, Valencia, Calif.) and cells harvested after ˜48 hr. J558 cells were transfected by electroporation using Bio-rad GENE pulser II at settings of 250 v, 950uF. Vector without insert was used to equalize total plasmid. In most experiments 0.15 μg of pEGFP-C1 served as an internal control. For experiments not involving immunoprecipitation, 6×10^5 cells were plated in 6 well plates and cell lysis was with Mammalian Protein Extraction Reagent (Pierce). For immunoprecipitation, 2.4×10^6 cells were seeded in 100 mm dishes and cells were lysed in RIPA buffer (1×PBS, 1% Nonidet P40. 0.5% sodium deoxycholate, 0.1% SDS). Lysis buffers were supplemented with Protease Inhibitor Cocktail (Sigma) and 10 mM iodoacetamide. Supernatants were analyzed after a 10,000×g centrifugation using standard techniques for immunoprecipitation, SDS-PAGE, immunoblotting and ECL. Treatment of cells with MG132 (Sigma) was at 50 μM for eight hr. Cycloheximnide was used at 50 μg/ml. All cells were collected at the end of the six hr chase.
# FIG. 5 depicts the results of immunoprecipitation of Ube2G2 (MmUbc7) from HEK 293T cells co-transfected with a plasmid encoding myc-tagged MmUbc7/Ube2G2 together with s plasmid encoding various forms of gp78. […]
# ERAD substrate CD3-δ = test: CD3-δ level in co-transfected cells by immunoblotting; assay type: cell-based; conditions: for effect on CD3-δ level (stabilization): co-transfection with CD3-δ, immunoblot
# Description: as §1
# FIG. 7 depicts the stabilization of CD3-δ protein in cells transfected with the G2BD, but not with the G2BD with amino acids 579-584 (of SEQ ID NO:2) mutated. HEK 293T cells were transfected with the ERAD substrate CD3-δ along with the indicated GFP fusions of gp78. The left and right sides are two separate experiments.
# (§2) To test this, GFP fusions of either a minimal E2 binding domain (GFP-574-611) or a more extended region that includes the C-terminus of gp78 (GFP-574-643) were evaluated (FIG. 21A). […] To assess this further, the C-terminal region of gp78 was fused to the eight amino acid Flag tag. […] Mdm2 is a RING finger E3 for both itself and p53 that is neither an ERAD substrate nor known to utilize Ube2G2 as an E2. […] To establish with certainty that the effect observed with expression of the Ube2G2 binding site is a consequence of binding endogenous E2, and not due to other unanticipated effects, cells were co-transfected with increasing amounts of Ube2G2 (FIG. 21C, lanes 3 and 4). […] These findings clearly establish that the isolated E2 binding site has the potential to markedly alter ERAD of CD3-δ. To ensure the effect observed was not peculiar to one substrate, TCR-α was evaluated (FIG. 21D).
# ERAD substrate TCR-α = test: TCR-α level in co-transfected cells; assay type: cell-based; conditions: co-transfection with TCR-α
# Description: as §1
# FIG. 9 depicts the stabilization of endogenous TCRα by the G2BD. TCR-α is a subunit of the T cell antigent receptor and an ERAD substrate. TCR-α was stabilized by the region implicated in Ube2G2 binding.
# as §2
# Mdm2 = Mdm2 level in co-transfected cells; assay type: cell-based; conditions: cells transfected with CD3-δ and Mdm2
# Description: as §1
# To test this, GFP fusions of either a minimal E2 binding domain (GFP-574-611) or a more extended region that includes the C-terminus of gp78 (GFP-574-643) were evaluated (FIG. 21A). […] To ensure the effect observed was not peculiar to one substrate, TCR-α was evaluated (FIG. 21D).
# gp78 = gp78 level in transfected cells by immunoblotting; assay type: cell-based
# Description: as §1, with “All cells were collected at the end of the six hr chase.” left out
# gp78 is degraded in a proteasome-dependent manner, and deletion of the entire cytoplasmic domain results in its stabilization. […] To determine the significance of the RING finger, Cue domain and Ube2G2 binding site on gp78 stability, mutations of each were evaluated within full-length gp78. […]
# [1] = molecular target: T3, lysine 48-linked (K48) tetra-ubiquitin (Homo sapiens, UniProt P0CG47); test: Tetra-ubiquitin binding to GST fusions; conditions: anti-ubiquitin immunoblot
# T3 construct: 1 μg K48 tetra-ubiquitin produced as described (Piotrowski et al., 1997); made in house
# Description: GST fusions were purified from E. Coli. Binding was carried out using equi-molar amount of fusion proteins measured by Commassie blue staining. Generally, 20 picomoles/sample were used. In vitro translated E2 was generated by coupled transcription and translation using 35S methionine in either wheat germ or rabbit reticulocyte lysate. Binding assays using in vitro translated E2 was carried out by incubating GST protein pre-bound to Glutathione-sepharose 4B with […] of ^35S-methionine labeled E2 in binding buffer (25 mM Tris-HCl, pH 7.4; 50 mM NaCl, 5 mM DTT; and 0.5% NP-40) overnight at 4° C. Beads were washed with binding buffer and resolved by SDS-PAGE under reducing conditions. Analysis was by Storm PhosphoImager (Applied Biosystems, Foster City, Calif.). Direct binding assays used wild type His6-MmUbc7 (His6-Ube2G2) and Glutathione-sepharose bound GST fusions. Beadbound GST protein was incubated with 100 ng purified His6-MmUbc7 in binding buffer and washed and eluted as above. After transfer to Hybond-P (Amersham Biosciences) binding was assessed with anti-His6 followed by Enhanced Chemiluminescence ECL; Pierce). Ubiquitin binding studies were performed with binding and washing as above using 1 μg K48 tetra-ubiquitin produced as described (Piotrowski et al., 1997). Detection was by anti-ubiquitin immunoblotting.
molecule,measurement,setting,value
574-608: GST fusion of amino acids 574-608 of gp78 (SEQ ID NO:2) (SADERQRMLVQRKDELLQQARKRFLNKSSEDDAAS; listed as Homo sapiens),binding to in vitro translated Ube2G2/MmUbc7,Ube2G2/MmUbc7,sufficient for binding to Ube2G2; also recorded: bound in vitro translated Ube2G2 comparably to the complete gp78 C-terminal tail
579-600: GFP fusion of amino acids 579-600 of SEQ ID NO:2 (QRMLVQRKDELLQQARKRFLNK; listed as Homo sapiens),binding of GFP fusion to co-expressed Myc-Ube2G2 in cells,Myc-Ube2G2,sufficient to bind Ube2G2 in cells
"CC(C)C[C@@H](C=O)NC(=O)[C@H](CC(C)C)NC(=O)[C@H](CC(C)C)NC(=O)OCc1ccccc1 [MG132, reference compound] (Cbz-Leu-Leu-Leu-aldehyde)",reversal of G2BD-induced CD3-δ stabilization by co-transfected Ube2G2,"ERAD substrate CD3-δ; cells expressing Flag-tagged gp78 574-643, 2 or 4 μg Ube2G2 plasmid",blocked the effect of transfected Ube2G2
same,effect on TCR-α level (stabilization),ERAD substrate TCR-α,prevented degradation of TCR-α
same,effect on Mdm2 level (stabilization),Mdm2,led to Mdm2 stabilization
same,effect of proteasome inhibitor on gp78 level,gp78,stabilized wild type gp78
GFP-574-611E2-m2: GFP fusion of gp78 574-611 with the E2 binding site mutation of residues 579 to 584,effect on CD3-δ level (stabilization),ERAD substrate CD3-δ,totally prevented this stabilization
same,effect on CD3-δ level (stabilization),ERAD substrate CD3-δ; listed as G2BD with amino acids 579-584 (of SEQ ID NO:2) mutated,loss of this effect
same,effect on TCR-α level (stabilization),ERAD substrate TCR-α,did not
"UBA-Cbl-b: GST fusion of the UBA of the RING finger E3 Cbl-b (NVDAKIAKLMGEGYAFEEVKRALEIAQNNVEVARSILREF; also: GST fusion partner, not in chain) [reference compound]",binding of K48 tetra-ubiquitin,[1],binds
